Experimental data reported in publication PMC12102262 (Nature Communications, 2025).

Experiments:
GID4 and ALK = GID4 and ALK (Homo sapiens, UniProt Q8IVV7+Q9UM73); experiment: NanoBRET cellular ternary complex formation assay, HEK293T cells; format: cell-based; conditions: 6 h, increasing concentrations
BaF3-EML4-ALK cells = experiment: CCK8 cell viability time course, BaF3-EML4-ALK cells; format: cell-based; conditions: 1 μM
EML4-ALK [1] = target: T1, EML4-ALK (Homo sapiens, UniProt Q9HC35+Q9UM73); experiment: EML4-ALK degradation in BaF3-EML4-ALK cells by immunoblotting; format: cell-based; conditions: 1 μM, same time points
EML4-ALK [2] = target: T1, EML4-ALK; experiment: EML4-ALK protein levels in H3122 xenograft tumors, I.P. dosing, immunoblotting; format: in vivo, nude mice; conditions: 10 mg/kg I.P. every other day, 8 doses

GID4 and ALK, sequence (Q9UM73 1094-1400 limits assumed): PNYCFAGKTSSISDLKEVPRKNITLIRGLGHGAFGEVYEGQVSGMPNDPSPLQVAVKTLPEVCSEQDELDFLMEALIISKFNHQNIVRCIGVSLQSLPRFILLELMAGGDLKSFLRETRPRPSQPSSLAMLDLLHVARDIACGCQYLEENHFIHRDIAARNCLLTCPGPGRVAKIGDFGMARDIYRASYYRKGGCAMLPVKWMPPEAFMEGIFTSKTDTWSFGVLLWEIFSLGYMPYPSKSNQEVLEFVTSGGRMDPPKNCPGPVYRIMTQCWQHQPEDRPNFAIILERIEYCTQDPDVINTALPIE
GID4 and ALK, sequence (Q8IVV7 whole entry): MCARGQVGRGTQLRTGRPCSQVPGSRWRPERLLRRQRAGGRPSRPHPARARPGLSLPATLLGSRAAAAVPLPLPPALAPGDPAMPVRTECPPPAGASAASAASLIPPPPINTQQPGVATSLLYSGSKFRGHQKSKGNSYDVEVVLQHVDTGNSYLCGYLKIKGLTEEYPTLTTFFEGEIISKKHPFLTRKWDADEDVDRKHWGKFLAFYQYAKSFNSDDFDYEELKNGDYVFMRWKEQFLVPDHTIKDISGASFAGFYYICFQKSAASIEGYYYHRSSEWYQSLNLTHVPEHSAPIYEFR

SMILES: COc1cc(N2CCC(N3CCN(C)CC3)CC2)ccc1Nc1ncc(Cl)c(Nc2ccccc2P(C)(C)=O)n1 [Brigatinib]
- BRET signal between GID4 and ALK (GID4 and ALK): did not induce any BRET signal
- time post-treatment at which cell proliferation is inhibited (BaF3-EML4-ALK cells): 0.5 h
- effect on levels of EML4-ALK (EML4-ALK [1]): had no effect
- effect on EML4-ALK protein levels in tumors (EML4-ALK [2]): failed to reduce
